According to patent EP3244885B1, “LIPOIC ACID FOR TREATING OR PREVENTING THREATENED MISCARRIAGE OR PRETERM DELIVERY” (priority 2015, dated 2016):

Legend:
[1] = tested on: primigravid patients with subchorionic hematoma; experiment: Randomized clinical trial, vaginal capsules of example 4 (10 mg ALA) vs. progesterone and untreated controls: reabsorption of subchorionic hematoma, pelvic pain, vaginal bleeding, abortions; assay type: in vivo, women; conditions: for Pel. pain, 2nd visit / Vaginal bleeding, 2nd visit: 20 days after the first visit; for Pel. pain, 2nd visit: ALA p ≤ 0.05 vs the other two groups; for Vaginal bleeding, 2nd visit: no significant differences between the three groups; for Pel. pain, visit upon enrolment / Vaginal bleeding, visit upon enrolment: share of patients with symptom at enrolment (baseline); for Improvement (%) mean ± st. error (resorption of the subchorionic hematoma): vaginal, ALA 10 mg/day or progesterone 400 mg daily, ALA p ≤ 0.05 vs progesterone and control groups
Procedure: Randomized trial, vaginal capsules of example 4 vs. progesterone and placebo Number of participants: […] (27 medical device, 27 progesterone, 22 placebo)
In primigravid patients between the 7th and 12th week of gestation, the trial had the following objective: • evaluating whether the administration of 10 mg ALA vaginally is associated with the reabsorption of the subchorionic hematoma.
Reduction or disappearance of: • pelvic pain • vaginal bleeding
• Women aged 20-40 • Primigravid between 7th e and 12th weeks of gestation • Presence of pelvic pain • With or without moderate vaginal bleeding • Presence of the subchorionic hematoma detected by ultrasound
• Absence of the fetus • Absence of heartbeat • Presence of uterine abnormalities • Presence of fetal abnormalities • Presence of multiple pregnancies • Presence of pre-pregnancy or gestational abnormalities • Diagnosis of allergic reaction to progesterone • Presence of ongoing therapies with anticoagulants or antihypertensives • Presence of karyotypic abnormalities
The women enrolled to be treated with ALA or progesterone were randomized into 2 groups: • 27 were administered with vaginal capsules containing 10 mg ALA 1 per day until resolution of the clinical condition • 27 were administered with vaginal capsules containing 400 mg progesterone daily.
The women in the control group were those who refuse any medical treatment.
(§1) Three visits were scheduled: • 1) Enrolment • 2) 20 days after the first visit • 3) 60 days after the first visit
In each visit, a "blinded" operator carried out the ultrasound examination to evaluate the subchorionic hematoma and the subjective (pelvic pain) and objective (vaginal bleeding) symptoms were recorded.

[2] = tested on: primigravid patients with threat of spontaneous abortion; assay type: in vivo, women; conditions: 60 patients per group, vaginal, ALA 10 mg/day or progesterone 400 mg daily, p ≤ 0.05; for Absence of symptoms: post treatment
Procedure: Randomized trial, vaginal capsules of example 4 vs. progesterone and placebo Number of participants: 120 (60 medical device, 60 progesterone)
In primigravid patients between the 7th and 12th week of gestation, the trial had the following objective: • evaluating whether the administration of 10mg ALA vaginally is associated with the reduction of the number of spontaneous abortions.
Reduction or disappearance of symptoms related to the risk of spontaneous abortion after therapy
• Absence of heartbeat • Presence of uterine abnormalities • Presence of fetal abnormalities • Presence of multiple pregnancies • Presence of pre-pregnancy or gestational abnormalities • Diagnosis of allergic reaction to progesterone • Presence of ongoing therapies with anticoagulants or antihypertensives • Presence of karyotypic abnormalities
The women enrolled to be treated with ALA or progesterone were randomized into 2 groups: • 60 were administered with vaginal capsules containing 10 mg ALA 1 per day until resolution of the clinical condition • 60 were administered with vaginal capsules containing 400 mg progesterone daily.
as §1

[3] = tested on: primigravid patients with subchorionic hematoma; experiment: Randomized clinical trial, vaginal capsules of example 4 (10 mg ALA) vs. progesterone and untreated controls: reabsorption of subchorionic hematoma, pelvic pain, vaginal bleeding, abortions; assay type: in vivo, women; conditions: number of abortions per group (27 patients each); ALA p ≤ 0.05 vs progesterone and control groups
[4] = tested on: fragments of amniochorial membranes; conditions: pre-treatment with ALA; cited from earlier work

SMILES	Pel. pain, 2nd visit [1] [%]	Vaginal bleeding, 2nd visit [1] [%]	Pel. pain, visit upon enrolment [1] [%]	Vaginal bleeding, visit upon enrolment [1] [%]	Improvement (%) mean ± st. error (resorption of the subchorionic hematoma) [1] [%]	Abortion [2] [%]	Absence of symptoms [2] [%]	Spontaneous abortions [3]	release of MMP9 and cytokine-induced prostaglandin E2 [4]	weakening of membranes induced by TNF [4]
CC(=O)[C@H]1CC[C@H]2[C@@H]3CCC4=CC(=O)CC[C@]4(C)[C@H]3CC[C@]12C [Progesterone, reference compound]	14	0	100	57	49.7 ± 2.7	25	75	6		
O=C(O)CCCCC1CCSS1 (stereo not drawn) [ALA, α-lipoic acid]	0	0	100	54	83.9 ± 3.9	15	85	3	able to inhibit	able to inhibit
